The record followed here is PMC3498381, “Isolated Toll-like Receptor Transmembrane Domains Are Capable of Oligomerization” (PLoS ONE, 2012).

The subject of assay [1] is homotypic TMD-TMD interaction (ToxR / ctx promoter / β-galactosidase reporter in FHK12 E. coli). Put plainly: Homotypic ToxR reporter assay (β-galactosidase). It is filed as cell-based. The conditions noted are these: for Mean homotypic TMD interaction (ToxR): β-galactosidase Miller units normalized to GpA signal and expression levels, FHK12 E. coli, 3 replicates with >6 measurements each, N in table. How it is done: . Various plasmid constructs for this assay make it possible to monitor both homotypic and heterotypic interactions that are driven by TMD-TMD association (Fig. S1).
We first investigated homotypic interactions because the majority of the TLR family members function as homodimers. […] This ΔTM construct consists of the same maltose binding protein and ToxR domain, but lacks a TMD for proper membrane insertion (Fig. S2). Statistical analysis using the Tukey-Kramer test was performed to analyze any significant differences between all possible pairs of average interaction potentials (Table S2). […] Among the TLRs, no discernable differences in grouping based on statistical analysis at p = 0.05 were indicated as all receptors belonged to multiple groups, except for TLR1, which with the lowest interaction potential among the family of receptors only existed in one group (Table S1).
Figure 2 Toll-like Receptor Transmembrane Domain Homotypic Interactions. (A) The ToxR assay was used to study homotypic interactions of the TLR TMDs. A chimeric protein expressing the TMD of interest was monitored through β-galactosidase activity. In all cases, we saw that the TLRs have interaction potential solely from TMD-TMD interactions. Each TLR TMD interaction measurement analysis was performed on 3 technical replicates with >6 measurements for each replicate. Error bars depict the standard error of the mean (n – Table S1). Western blots staining for MBP were performed to monitor expression levels of the constructs – (B) chimeric maltose binding protein expression, (C) endogenous maltose binding protein expression. All samples were normalized to the GpA signal and expression levels.
Briefly, the ToxR plasmids containing the TMD of interest (200 ng) were transformed into chemically competent FHK12 E. coli (200 µL) by incubating on ice for 30 min, heat shock at 42°C for 90 s, incubation on ice for 2 min, and addition of SOC media (800 µL) followed by incubation with shaking for 1 h at 37°C. This transformation mixture (50 µL) was then spread on LB agar plates containing cholaramphenicol (30 µg/mL) and ampicillin (100 µg/mL) and grown overnight at 37°C. Single colonies were selected from the plates in triplicate and added to 5 mL of LB media containing cholaramphenicol (30 µg/mL), ampicillin (100 µg/mL), and arabinose (0.0025%). These cultures were incubated overnight (16–20 h) with shaking at 37°C. The β-galactosidase activity was monitored using a Beckman Coulter DTX 880 plate-reader. First 5 µL of each culture was plated >6 times in a clear 96-well flat bottom culture plate (Sarstedt) containing 100 µL of Z-buffer/chloroform (1% β-mercaptoethanol, 10% chloroform, 89% Z buffer: […], 10 mM potassium chloride, 1 mM magnesium sulfate, pH 7.0). The cell densities of each well were recorded by measuring the OD595. Bacteria were lysed by the addition of 50 µL Z-buffer/SDS (1.6% sodium dodecyl sulfate w/v in Z-buffer) and shaking at 28°C for 10 min. Enzymatic activity was measured by adding 50 µL of Z-buffer/ortho-Nitrophenyl-β-[…] (ONPG) (0.4% ONPG w/v in Z-buffer) and monitoring the reaction at 405 nm for a period of 20 min at 30 s intervals. Miller units were calculated using the equation: [drawing 1]
Western blotting was performed with antiserum recognizing the maltose-binding protein moiety of the constructs (Abcam). Data were normalized to GpA Miller Units and protein expression levels using ImageJ (NIH) as reported previously.

In assay [2] the test system is GpA TMD (functional ToxR chimera). Nature of the assay: Dominant-negative (heterotypic) ToxR assay, GpA as dominant phenotype. The conditions noted are these: Miller units normalized to poly-Leu* = 1 and corrected for expression, lower = stronger interaction, N in table. It is filed as cell-based. The text has this: (§1) Next, we investigated heterotypic interactions of the TLRs. We specifically studied TLR2, TLR1, and TLR6 because they are cell surface expressed receptors known to form functional heterodimers. To determine the ability of these three cell surface TLRs to have heterotypic interactions within its family, we studied the ability of the TLR1, TLR2, and TLR6 TMDs to interact with the TLR receptors also expressed at the cell surface; namely, TLR1, TLR2, TLR4, TLR5, TLR6, and TLR10. We monitored these interactions using a dominant-negative ToxR assay (Fig. S1B) which works by having a second TMD expressed with a non-functional ToxR* intracellular domain. This ToxR* domain is incapable of binding the ctx promoter making any interactions with this second expressed TMD unable to produce the reporter enzyme. As such, any interaction between the functional ToxR and non-functional ToxR* TMDs will result in a reduction in signal output.
(§2) Figure 3 Cell- Surface Toll-like Recptor Heterotypic Interactions. (A) A dominant-negative ToxR assay was used to study heterotypic interactions of the cell-surface TLRs. Two TLR TMDs were encoded in the FHK12 E.coli reporter strain, one with a functional ToxR domain (dominant phenotype) and one with a nonfunctional ToxR* domain (negative phenotype). Interaction between the two different TMDs leads to a reduction in signal from that seen for homotypic interactions. The TMDs for GpA, TLR1, TLR2, and TLR6 were used with the functional ToxR domain while TMDs for poly-Leucine, TMD5, integrin αIIb, TLR1, TLR2, TLR4, TLR5, TLR6, and TLR10 were used with the nonfunctional ToxR* domain. Interactions were most prominent for the TLRs known to have heterotypic interactions – TLR2-TLR1 and TLR2-TLR6. […] We also saw interaction with the same TMD further validating the homotypic interactions. […] Each dominant phenotype was done in 3 technical replicates with each negative phenotype and >6 measurements made for each replicate. Error bars depict the standard error of the mean (n- Tables S3, S5, S7, S9). Western blots staining for MBP were performed to monitor expression levels of the constructs with the upper band being functional ToxR chimeras and the lower band being nonfunctional ToxR* chimeras – (B) GpA, (C) TLR1, (D) TLR2, and (E) TLR6. Significant differences for the same dominant phenotype were determined by use of the Tukey-Kramer test.
(§3) For heterotypic interactions one plasmid containing a functional ToxR domain (200 ng) and a second plasmid containing a non-functional ToxR* domain (200 ng) were co-transformed into chemically competent FHK12 E. coli (400 µL) by incubating on ice for 30 min, heat shock at 42°C for 90 s, incubation on ice for 2 min, and addition of SOC media (1600 µL) followed by incubation with shaking for 1 h at 37°C. This transformation mixture (50 µL) was then used to spread LB-agar plates containing cholaramphenicol (30 µg/mL), kanamycin (33 µg/mL), and ampicillin (100 µg/mL) and grown overnight at 37°C. Single colonies were selected from the plates and grown in 5 mL LB media containing cholaramphenicol (30 µg/mL), kanamycin (33 µg/mL), ampicillin (100 µg/mL), and arabinose (0.0025%) overnight (16–20 h) with shaking at 37°C. Analysis of activity was monitored as described in homotypic ToxR assays. Western blotting was done in the same manner as the homotypic ToxR assay with one band appearing for the functional ToxR construct and a second band for the nonfunctional ToxR* construct. Data were normalized to poly-Leu* Miller Units and corrected for varying protein expression levels using ImageJ (NIH) as previously reported.

The test system of assay [3] is TLR2 TMD (functional ToxR chimera). Nature of the assay: Dominant-negative (heterotypic) ToxR assay, TLR2 as dominant phenotype. The format is cell-based. The conditions noted are these: Miller units normalized to poly-Leu* = 1 and corrected for expression, lower = stronger interaction, N in table.
From the text: as §1, §2, §3

The subject of assay [4] is TLR1 TMD (functional ToxR chimera). Put plainly: Dominant-negative (heterotypic) ToxR assay, TLR1 as dominant phenotype. To be noted: Miller units normalized to poly-Leu* = 1 and corrected for expression, lower = stronger interaction, N in table. The format is cell-based.
From the text: as §1, §2, §3

The subject of assay [5] is TLR6 TMD (functional ToxR chimera). Put plainly: Dominant-negative (heterotypic) ToxR assay, TLR6 as dominant phenotype. The conditions noted are these: Miller units normalized to poly-Leu* = 1 and corrected for expression, lower = stronger interaction, N in table. It is filed as cell-based, E. coli.
From the text: as §1, §2, §3

No end group written: not given here.

Regarding “TLR10*: TLR10 TMD chimera with nonfunctional ToxR* domain (negative phenotype) (GNRASALLIVTIVVIMLVLGLAVAFCCLGSLIN; cysteine pairing not given here; also: fused to non-functional ToxR* (S87H) and maltose binding protein, ends not given here)”, the “Mean homotypic TMD interaction (ToxR)” value in assay [1] is reported as 0.8259. The “Mean GpA-TMD* heterotypic interaction (ToxR signal)” value in assay [2] is 1.1244. Further, the “Mean TLR2-TMD* heterotypic interaction (ToxR signal)” value in assay [3] came out at 0.3877. Also, the “Mean TLR1-TMD* heterotypic interaction (ToxR signal)” value in assay [4] amounted to 0.3608. The “Mean TLR6-TMD* heterotypic interaction (ToxR signal)” value in assay [5] was determined as 0.3445.
Consider “GNRASLILF S L S I S V S LFLMVMMTASHLGSLIN [TLR7 TMD]”, for which the “Mean homotypic TMD interaction (ToxR)” value in assay [1] is recorded as 0.4947.
For the substance “GNRASVTAVILFFFTFFITTMVMLAALAGSLIN [TLR8 TMD]”, the “Mean homotypic TMD interaction (ToxR)” value in assay [1] is recorded as 0.7486.
The same measure, in the same setting: next, “GNRASLIIF G VMA G VIGTILGSLIN [GpA TMD, reference compound]”: 1.0000; “GNRASLFFMINTSILLIFIFIVLLIHFGSLIN [TLR3 TMD]”: 0.8032.
As for “TLR5*: TLR5 TMD chimera with nonfunctional ToxR* domain (negative phenotype) (GNRASFSLFIVCTVTLTLFLMTILTVTGSLIN; also: fused to non-functional ToxR* (S87H) and maltose binding protein, ends not given here)”, the “Mean homotypic TMD interaction (ToxR)” value in assay [1] is reported as 0.6087. Further, the “Mean GpA-TMD* heterotypic interaction (ToxR signal)” value in assay [2] is recorded as 0.8934. For the same substance, the “Mean TLR2-TMD* heterotypic interaction (ToxR signal)” value in assay [3] was 0.9233. The “Mean TLR1-TMD* heterotypic interaction (ToxR signal)” value in assay [4] is 0.6805.
For the substance “TLR2 G593V (GNRASALVSVMCCALFLLILLTGVLCGSLIN; cysteine pairing not given here; also: fused to maltose-binding protein and ToxR activation domain, ends not given here)”, the “Effect of TLR2 point mutation on homotypic interaction” value in assay [1] (homotypic ToxR assay, compared with wild type TLR2 TMD (Fig. 7A)) was “no mutation demonstrated significant difference from the wild type TLR2 TMD”.
On to “GNRASWQLLAFFLAFFLDLILLIIALYLGSLIN [TMD5*, TMD5 of latent membrane protein 1 fused to nonfunctional ToxR* domain, unrelated receptor, reference compound]”, for which the “Mean GpA-TMD* heterotypic interaction (ToxR signal)” value in assay [2] is reported as 1.1703. For the same substance, in assay [3], the “Mean TLR2-TMD* heterotypic interaction (ToxR signal)” value is 1.1904. In addition, in assay [4], the “Mean TLR1-TMD* heterotypic interaction (ToxR signal)” value was 1.0921. Further, the “Mean TLR6-TMD* heterotypic interaction (ToxR signal)” value in assay [5] was found to be 1.1235.
With “TLR4*: TLR4 TMD chimera with nonfunctional ToxR* domain (negative phenotype) (GNRASTIIGVSVLVVSVVAVLVYKFYFGSLIN; also: fused to non-functional ToxR* (S87H) and maltose binding protein, ends not given here)”, in assay [1], the “Mean homotypic TMD interaction (ToxR)” value is listed as 0.5620. Moreover, the “Mean GpA-TMD* heterotypic interaction (ToxR signal)” value in assay [2] was determined as 1.1905. In assay [3], the “Mean TLR2-TMD* heterotypic interaction (ToxR signal)” value stood at 1.1386. Besides, in assay [4], the “Mean TLR1-TMD* heterotypic interaction (ToxR signal)” value is given as 0.8709. In addition, the “Mean TLR6-TMD* heterotypic interaction (ToxR signal)” value in assay [5] is given as 0.9610.
On to “GNRASFALSLL A V A L G L G VPMLHHLGSLIN [TLR9 TMD]”, for which the “Mean homotypic TMD interaction (ToxR)” value in assay [1] amounted to 0.7992.
As for “GNRASWVLV G VLG G LLLLTILVLAMWGSLIN [Integrin*, Integrin αIIb TMD fused to nonfunctional ToxR* domain, unrelated receptor, reference compound]”, the “Mean GpA-TMD* heterotypic interaction (ToxR signal)” value in assay [2] was 1.0189. Moreover, the “Mean TLR2-TMD* heterotypic interaction (ToxR signal)” value in assay [3] amounted to 0.7609. Further, the “Mean TLR1-TMD* heterotypic interaction (ToxR signal)” value in assay [4] is 0.7583. For the same substance, the “Mean TLR6-TMD* heterotypic interaction (ToxR signal)” value in assay [5] is on record as 0.6106.
